The target of the experiment is ACSS2 (Homo sapiens, UniProt Q9NR19). Put plainly: biochemical.
Sequence of ACSS2 (Q9NR19 whole entry): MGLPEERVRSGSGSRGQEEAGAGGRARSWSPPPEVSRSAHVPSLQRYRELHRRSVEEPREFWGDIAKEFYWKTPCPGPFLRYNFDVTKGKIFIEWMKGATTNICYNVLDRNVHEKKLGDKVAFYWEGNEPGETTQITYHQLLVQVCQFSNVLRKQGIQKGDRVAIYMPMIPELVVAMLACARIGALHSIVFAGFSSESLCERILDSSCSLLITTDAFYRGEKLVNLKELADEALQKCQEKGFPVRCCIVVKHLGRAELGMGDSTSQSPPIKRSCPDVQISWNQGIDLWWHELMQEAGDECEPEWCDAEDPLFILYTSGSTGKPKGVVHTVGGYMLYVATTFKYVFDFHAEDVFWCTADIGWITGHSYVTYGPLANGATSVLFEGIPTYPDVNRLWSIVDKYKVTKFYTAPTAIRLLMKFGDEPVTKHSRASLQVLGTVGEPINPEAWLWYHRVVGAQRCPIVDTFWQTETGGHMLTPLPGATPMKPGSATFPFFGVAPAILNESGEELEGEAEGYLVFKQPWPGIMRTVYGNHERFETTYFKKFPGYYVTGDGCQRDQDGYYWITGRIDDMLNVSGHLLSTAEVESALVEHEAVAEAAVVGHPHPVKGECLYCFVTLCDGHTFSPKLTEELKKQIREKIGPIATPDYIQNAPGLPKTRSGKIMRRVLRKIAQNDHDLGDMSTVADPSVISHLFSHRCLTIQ
The IC50 is the concentration that inhibits the measured activity by half. Low readings indicate greater potency in that assay, high ones weaker potency in that assay. For `CC1=NN(C2CCN(C)CC2)C(=O)C1C(=O)Nc1ccccc1` (stereo not shown) [compound 221, 3-methyl-1-(1-methylpiperidin-4-yl)-5-oxo-N-phenyl-4,5-dihydro-1H-pyrazole-4-carboxamide], the IC50 was greater than 100000 nM.
Compound `CC1=NN(c2ccccc2)C(=O)C1C(=O)Nc1cccc(O)c1` (stereo not shown) [compound 222, N-(3-hydroxyphenyl)-3-methyl-5-oxo-1-phenyl-4,5-dihydro-1H-pyrazole-4-carboxamide] displayed a 50% inhibitory concentration (IC50) of 1000 to 100000 nM.
Take `CC1=NN(c2ccccc2)C(=O)C1C(=O)Nc1cccc(CN)c1` (stereo not shown) [compound 223, N-(3-(aminomethyl)phenyl)-3-methyl-5-oxo-1-phenyl-4,5-dihydro-1H-pyrazole-4-carboxamide]: the IC50 fell in the range of 1000 to 100000 nM.
Turning to `CCc1cccc(NC(=O)c2c(C)nn(-c3ccc(NC)cc3)c2OC(=O)N(C)C)c1` [compound 224, 4-((3-ethylphenyl)carbamoyl)-3-methyl-1-(4-(methylamino)phenyl)-1H-pyrazol-5-yl dimethylcarbamate], the half-inhibitory concentration (IC50) was 1000 to 100000 nM.
The figure for `CC1=NN(c2ccncc2)C(=O)C1C(=O)Nc1cccc(-c2cnccn2)c1` (stereo not shown) [compound 232] is 6 to 100 nM; for `CC1=NN(c2ccncc2)C(=O)C1C(=O)Nc1cccc(-c2ncc[nH]2)c1` (stereo not shown) [compound 233] it is 100 to 1000 nM; for `CC1=NN(c2cccc(C(=O)OC(C)C)c2)C(=O)C1C(=O)Nc1cccc(-c2ncco2)c1` (stereo not shown) [compound 238] it is 6 to 100 nM.
As to `CC1=NN(c2ccccc2)C(=O)C1C(=O)Nc1cccc(-c2ccon2)c1` (stereo not shown) [compound 239], the half-inhibitory concentration (IC50) was 1000 to 100000 nM.
`CC1=NN(c2ccncc2)C(=O)C1C(=O)Nc1cccc(-c2ccco2)c1` (stereo not shown) [compound 240] gave a concentration for half-maximal inhibition (IC50) of 6 to 100 nM.
The figure for `COc1ccc(N2N=C(C)C(C(=O)Nc3cccc(-c4ncco4)c3)C2=O)cn1` (stereo not shown) [compound 245] is 6 to 100 nM; for `CC1=NN(c2ccc(S(=O)(=O)N(C)C)cc2)C(=O)C1C(=O)Nc1cccc(-c2ncco2)c1` (stereo not shown) [compound 254] it is 100 to 1000 nM; for `COc1ccc(N2N=C(C)C(C(=O)Nc3cccc(-c4ncco4)c3)C2=O)cc1` (stereo not shown) [compound 256] it is 6 to 100 nM.
For `CCc1ccc(NC(=O)C2C(=O)N(c3ccccc3)N=C2C)s1` (stereo not shown) [compound 260], the concentration for half-maximal inhibition (IC50) is 100 to 1000 nM.
`CC1=NN(c2ccc(S(=O)(=O)N(C)C)cc2)C(=O)C1C(=O)Nc1cccc(-c2cnccn2)c1` (stereo not shown) [compound 262] had an IC50 of 6 to 100 nM.
Regarding `CCc1cccc(NC(=O)C2C(=O)N(c3ccc4cccnc4c3)N=C2C)c1` (stereo not shown) [compound 267], the half-maximal inhibitory concentration (IC50) lay in the range of 6 to 100 nM.
Compound `CC1=NN(c2ccccc2)C(=O)C1C(=O)Nc1nccn1C` (stereo not shown) [compound 268] gave an IC50 of 1000 to 100000 nM.
The figure for `CC1=NN(c2ccc(C(F)(F)F)cc2)C(=O)C1C(=O)Nc1cccc(-c2ncco2)c1` (stereo not shown) [compound 270] is 100 to 1000 nM; for `CC1=NN(c2cccc(S(=O)(=O)N(C)C)c2)C(=O)C1C(=O)Nc1cccc(-c2cnccn2)c1` (stereo not shown) [compound 272] it is 6 to 100 nM.
The figure for `CC1=NN(c2cccc(S(=O)(=O)N(C)C)c2)C(=O)C1C(=O)Nc1cccc(-c2ncc[nH]2)c1` (stereo not shown) [compound 277] is 6 to 100 nM; for `CC1=NN(c2ccccc2)C(=O)C1C(=O)Nc1ccc2[nH]cnc2c1` (stereo not shown) [compound 278] it is 1000 to 100000 nM.
Consider `COc1ccc(N2N=C(C)C(C(=O)Nc3cccc(C(C)(F)F)c3)C2=O)cc1O` (stereo not shown) [compound 281], for which the IC50 was in the range of 0.01 to 6 nM.
The figure for `CC1=NN(c2ccccc2)C(=O)C1C(=O)Nc1cscc1C` (stereo not shown) [compound 283] is 100 to 1000 nM.
`CCc1cc(NC(=O)C2C(=O)N(c3ccccc3)N=C2C)cs1` (stereo not shown) [compound 284] returned a 50% inhibitory concentration (IC50) of 100 to 1000 nM.
`CCc1csc(NC(=O)C2C(=O)N(c3ccccc3)N=C2C)c1` (stereo not shown) [compound 285] displayed an IC50 of 100 to 1000 nM.
As for `CCc1ccsc1NC(=O)C1C(=O)N(c2ccccc2)N=C1C` (stereo not shown) [compound 288], the IC50 is 100 to 1000 nM.
On to `CCc1cscc1NC(=O)C1C(=O)N(c2ccccc2)N=C1C` (stereo not shown) [compound 290], for which the 50% inhibitory concentration (IC50) was 100 to 1000 nM.
`CC(=O)NS(=O)(=O)c1cccc(N2N=C(C)C(C(=O)Nc3cccc(C(C)(F)F)c3)C2=O)c1` (stereo not shown) [compound 293]: the IC50 fell in the range of 6 to 100 nM.
Consider `CC(=O)NS(=O)(=O)c1cc(N2N=C(C)C(C(=O)Nc3cccc(C(C)(F)F)c3)C2=O)ccc1OC(F)(F)F` (stereo not shown) [compound 294], for which the IC50 was in the range of 6 to 100 nM.
As to `CC1=NN(c2ccc(OC(F)(F)F)cc2)C(=O)C1C(=O)Nc1csc(C(C)(F)F)c1` (stereo not shown) [compound 295], the half-inhibitory concentration (IC50) fell in the range of 6 to 100 nM.
Turning to `CC1=NN(c2ccc(OC(F)(F)F)cc2)C(=O)C1C(=O)Nc1cc(C(C)(F)F)cs1` (stereo not shown) [compound 296], the concentration for half-maximal inhibition (IC50) fell in the range of 6 to 100 nM.
For `CC(=O)NS(=O)(=O)c1cc(N2N=C(C)C(C(=O)Nc3cccc(-c4ccco4)c3)C2=O)ccc1OC(F)(F)F` (stereo not shown) [compound 299], the IC50 is 6 to 100 nM.
As to `COc1ccc(N2N=C(C)C(C(=O)Nc3cccc(C(C)(F)F)c3)C2=O)c(C)c1` (stereo not shown) [compound 302], the 50% inhibitory concentration (IC50) was 100 to 1000 nM.
Regarding `CC1=NN(c2ccc(OC(F)F)cc2)C(=O)C1C(=O)Nc1cccc(C2COC2)c1` (stereo not shown) [compound 329], the IC50 fell in the range of 100 to 1000 nM.
The figure for `CC1=NN(c2cc(Cc3ccccc3Cl)cc(-c3ccccc3)c2)C(=O)C1C(=O)Nc1cccc(C(C)(F)F)c1` (stereo not shown) [compound 333] is 6 to 100 nM; for `CC1=NN(c2cccc(CN)c2)C(=O)C1C(=O)Nc1cccc(C(C)(F)F)c1` (stereo not shown) [compound 335] it is 6 to 100 nM.
As for `CC1=NN(c2ccc(OC(F)F)cc2)C(=O)C1C(=O)Nc1cccc(C(C)(O)c2ccccc2)c1` (stereo not shown) [compound 337], the figure is 6 to 100 nM; as for `Cc1nn(-c2ccc(OC(F)F)cc2)cc1C(=O)Nc1cccc(C(C)(F)F)c1` [compound 338], 6 to 100 nM.
`CC1=NN(c2ccc(OC(F)F)cc2)C(=O)C1NC(=O)c1cccc(C(C)(F)F)c1` (stereo not shown) [compound 341] had an IC50 of 100 to 1000 nM.
As to `COc1ccc(N2N=C(C)C(C(=O)Nc3cccc(C(C)(F)F)c3)C2=O)cc1-c1cc[n+]([O-])cc1` (stereo not shown) [compound 345], the half-maximal inhibitory concentration (IC50) is 100 to 1000 nM.
`CC1=NN(c2ccc(OC(F)F)cc2)C(=O)C1C(=O)Nc1cccc2cc[nH]c12` (stereo not shown) [compound 346]: the IC50 was in the range of 100 to 1000 nM.
The figure for `CC1=NN(c2ccc(OC(F)F)cc2)C(=O)C1C(=O)Nc1ccc2[nH]ccc2c1` (stereo not shown) [compound 347] is 100 to 1000 nM.
For `CC1=NN(c2ccc(C3COC3)cc2)C(=O)C1C(=O)Nc1cccc(C(C)(F)F)c1` (stereo not shown) [compound 348], the IC50 was 6 to 100 nM.
The compound `CC1=NN(c2ccc(OC(F)F)cc2)C(=O)C1C(=O)Nc1ccc2cc[nH]c2c1` (stereo not shown) [compound 349] registered an IC50 of 100 to 1000 nM.
With `CC1=NN(c2ccc(OC(F)F)cc2)C(=O)C1C(=O)Nc1cccc2[nH]ccc12` (stereo not shown) [compound 350], the IC50 was 100 to 1000 nM.
As for `COc1ccc(N2N=C(C)C(C(=O)Nc3cccc(C(C)(F)F)c3)C2=O)cc1-c1ncc(C)o1` (stereo not shown) [compound 352], the figure is 0.01 to 6 nM.
Take `COc1ccc(N2N=C(C)C(C(=O)Nc3cccc(C4COC4)c3)C2=O)cc1` (stereo not shown) [compound 354]: the IC50 lay within 6 to 100 nM.
`CC1=NN(c2ccc(OC(F)F)c(-c3ncco3)c2)C(=O)C1C(=O)Nc1cccc(C(C)(F)F)c1` (stereo not shown) [compound 355] returned an IC50 of 0.01 to 6 nM.
`CC1=NN(c2cccc(C#CCN)c2)C(=O)C1C(=O)Nc1cccc(C(C)(F)F)c1` (stereo not shown) [compound 356] showed a half-inhibitory concentration (IC50) of 6 to 100 nM.
In turn, `COc1ccc(N2N=C(C)C(C(=O)NCc3ccccc3)C2=O)cc1` (stereo not shown) [compound 358] gave a half-inhibitory concentration (IC50) of 100 to 1000 nM.
In the case of `CCCn1ccc2ccc(N3N=C(C)C(C(=O)Nc4cccc(C(F)(F)CC)c4)C3=O)cc21` (stereo not shown) [compound 359], the 50% inhibitory concentration (IC50) was 0.01 to 6 nM.
The compound `CCC(F)(F)c1cccc(NC(=O)C2C(=O)N(c3ccc4ccn(C(C)C)c4c3)N=C2C)c1` (stereo not shown) [compound 360] showed an IC50 of 0.01 to 6 nM.
As for `CC1=NN(c2ccc3ccn(-c4ccccc4)c3c2)C(=O)C1C(=O)Nc1cccc(C(C)(F)F)c1` (stereo not shown) [compound 361], the half-inhibitory concentration (IC50) was 0.01 to 6 nM.
For the compound `CC1=NN(c2ccc(OC(F)F)cc2)C(=O)C1C(=O)Nc1cccc(C(F)(F)C(C)C)c1` (stereo not shown) [compound 362], the 50% inhibitory concentration (IC50) is 6 to 100 nM.
Take `CCCn1ccc2ccc(N3N=C(C)C(C(=O)Nc4cccc(C(C)(F)F)c4)C3=O)cc21` (stereo not shown) [compound 363]: the half-maximal inhibitory concentration (IC50) lay in the range of 0.01 to 6 nM.
Compound `CC1=NN(c2ccc3ccn(C(C)C)c3c2)C(=O)C1C(=O)Nc1cccc(C(C)(F)F)c1` (stereo not shown) [compound 364] yielded an IC50 of 0.01 to 6 nM.
In turn, `CC1=NN(c2cc(Cc3ccccc3OCc3ccccc3)cc(-c3cccnc3)c2)C(=O)C1C(=O)Nc1cccc(C(C)(F)F)c1` (stereo not shown) [compound 365] gave an IC50 of 6 to 100 nM.
Compound `CC1=NN(c2ccc3ccn(C)c3c2)C(=O)C1C(=O)Nc1cccc(C(C)(F)F)c1` (stereo not shown) [compound 366] returned an IC50 of 0.01 to 6 nM.
`CC1=NN(c2ccc3ccn(Cc4ccccc4)c3c2)C(=O)C1C(=O)Nc1cccc(C(C)(F)F)c1` (stereo not shown) [compound 367] yielded an IC50 of 0.01 to 6 nM.
`CCC(F)(F)c1cccc(NC(=O)C2C(=O)N(c3ccc(OC)c(-c4ccccc4)c3)N=C2C)c1` (stereo not shown) [compound 368]: the IC50 lay in the range of 0.01 to 6 nM.
On to `CCC(F)(F)c1cccc(NC(=O)C2C(=O)N(c3ccc4cc[nH]c4c3)N=C2C)c1` (stereo not shown) [compound 369], for which the IC50 was in the range of 0.01 to 6 nM.
With `CCC(F)(F)c1cccc(NC(=O)C2C(=O)N(c3ccc(OC(F)F)c(-c4nnc(C)[nH]4)c3)N=C2C)c1` (stereo not shown) [compound 370], the IC50 lay within 0.01 to 6 nM.
On to `CC1=NN(c2ccc(OC(F)F)c(-c3nnc(C)[nH]3)c2)C(=O)C1C(=O)Nc1cccc(C(C)(F)F)c1` (stereo not shown) [compound 371], for which the 50% inhibitory concentration (IC50) is 0.01 to 6 nM.
Compound `CC1=NN(c2cc(-c3ccccc3)cc(-c3ccsc3)c2)C(=O)C1C(=O)Nc1cccc(C(C)(F)F)c1` (stereo not shown) [compound 372] gave a half-maximal inhibitory concentration (IC50) of 0.01 to 6 nM.
As to `CC1=NN(c2cc(Cc3ccc(OCc4ccccc4)cc3)cc(-c3cccnc3)c2)C(=O)C1C(=O)Nc1cccc(C(C)(F)F)c1` (stereo not shown) [compound 373], the IC50 lay in the range of 100 to 1000 nM.
`CC1=NN(c2ccc(Cc3ccccc3)c(-c3cccnc3)c2)C(=O)C1C(=O)Nc1cccc(C(C)(F)F)c1` (stereo not shown) [compound 374] yielded a half-maximal inhibitory concentration (IC50) of 0.01 to 6 nM.
Regarding `CC1=NN(c2ccc(Cc3ccccc3)c(-c3ccccc3)c2)C(=O)C1C(=O)Nc1cccc(C(C)(F)F)c1` (stereo not shown) [compound 375], the IC50 is 0.01 to 6 nM.
Compound `CC1=NN(c2cc(Cc3ccc(Cl)cc3)cc(-c3ccccc3)c2)C(=O)C1C(=O)Nc1cccc(C(C)(F)F)c1` (stereo not shown) [compound 376] had an IC50 of 6 to 100 nM.

The values are drawn from patent US10851064B2, “ACSS2 inhibitors and methods of use thereof” (METABOMED LTD., priority 2017, dated 2020).
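Also: Cell-free human ACSS2 enzyme reaction with acetate, CoA and ATP, 90 min at 37 C, coupled to pyrophosphatase, phosphate release detected by Biomol Green absorbance at 620 nm.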
